# Reference: patent US10859569B2, “SmFRET with membrane proteins” (Cornell University, priority 2010, dated 2020)
# Entries after “also recorded” stand apart in the source; their conditions may differ.
# Tests used:
# LeuT (H7C/R86C) = assay: smFRET imaging of surface-immobilized Cy3/Cy5-labeled LeuT (H7C/R86C), intracellular gate; assay type: biochemical, Aquifex aeolicus
# Experimental: (§1) The inventors acquired fluorescence data using a prism-based TIR microscope, as described (Munro, J. B. et al., Mol. Cell 25, 505-517 (2007)). All experiments were performed in buffer containing 50 mM Tris/MES (pH 7.5), 10% glycerol, 0.02% w/v DDM, 5 mM 2-mercaptoethanol and 200 mM salt (KCl or NaCl, as specified). The inventors used an oxygen scavenging environment (1 unit per μl glucose oxidase, 8 units per μl catalase, 0.1% v/v glucose) containing 1 mM cyclooctatetraene in all experiments to minimize photobleaching (Dave, R. et al., Biophys. J. 96, 2371-2381 (2009)).
# (§2) The inventors incubated microfluidic imaging chambers passivated with a mixture of PEG and biotin-PEG (Blanchard, S. C. et al. Proc. Natl Acad. Sci. USA 101, 12893-12898 (2004)) with 0.8 μM streptavidin (Invitrogen), followed by 20 nM biotin-NTA (Biotium) charged with NiCl2. Cy3/Cy5-labeled His10-LeuT molecules (2 nM) were surface-immobilized to surface-bound Ni2+. The inventors observed no significant surface immobilization, measured as described below, in the absence of biotin-NTA.
# Cy3 fluorophores were excited by the evanescent wave generated by TIR of a single-frequency light source (Ventus 532 nm, Laser Quanta). Photons emitted from Cy3 and Cy5 were collected using a 1.2 NA 60× water-immersion objective (Nikon), and optical treatments were used to spatially separate Cy3 and Cy5 frequencies onto a cooled, back-thinned CCD (Cascade 128, Photometrics). The inventors acquired fluorescence data using MetaMorph software (Universal Imaging Corporation). The inventors corrected spectral bleed-through of Cy3 intensity on the acceptor channel by subtracting 7.5% of donor signal from the acceptor. FRET traces were calculated as: FRET=ICy5/(ICy3+ICy5), where ICy3 and ICy5 are the instantaneous Cy3 and Cy5 fluorescence intensities, respectively. Using an established procedure (Roy, et al., Nature Methods 5: 507-516 (2008)), The inventors estimated the ratio of donor and acceptor quantum yields and detection efficiencies (γ) to be close to 1; therefore, no correction was applied.
# The inventors analyzed fluorescence and FRET traces using automated analysis, in which traces were selected using algorithms implemented in MATLAB (MathWorks). Algorithms for analyzing smFRET data are found in U.S. 61/437,203, which is herein incorporated by reference in its entirety. Properties were calculated for each trace, and selected for further analysis if they met the following specific criteria: a single photobleaching event, at least 8:1 signal-to-background noise ratio (SNR), <4 donor fluorophore blinking events, a donor-to-acceptor Pearson's correlation coefficient <0.5, and a lifetime of at least 15 frames showing FRET ≥0.15. The inventors detected photobleaching events in each trace as a significant (≥3 standard deviations of background noise) drop in the median-filtered (window size of 9 frames) total fluorescence intensity (ITotal=ICy3+ICy5) without a return to the previous average level. Events in which fluorescence intensity did return were marked as blinking events. Signal-to-noise ratios are calculated as total intensity relative to the standard deviation of background noise: ITotal/stdev(ICy3)+stdev(ICy5). The inventors excluded data points corresponding to donor fluorophore dark states from calculation of the correlation coefficient.
# To simplify the presentation of FRET histograms, The inventors removed zero-FRET states following idealization of the data to a two-state model (E=0.1±0.1 and E=0.4±0.1) using a segmental k-means algorithm (Qin, F., Biophys. J. 86, 1488-1501 (2004)). Error bars in FRET histograms represent the standard deviation of 100 bootstrap samples of each set of FRET traces examined.
# The inventors estimated kinetic parameters for biotinylated H7C-R86C-LeuT samples by manually selecting traces showing at least one transition between clearly distinct states with anti-correlated changes in donor and acceptor fluorescence intensity in each transition. […]
# LeuT [1] = conditions: read-out: half-maximum effective concentration (EC50) of Na+ for stimulating binding and transport; cited from earlier work
# LeuT (H7C/T515C) = assay: smFRET imaging of Cy3/Cy5-labeled LeuT H7C/T515C; assay type: biochemical, Aquifex aeolicus; conditions: saturating Na+ 200 mM
# Experimental: as §1
# as §2, with “Cy3/Cy5-labeled His10-LeuT molecules (2 nM) were surface-immobilized to surface-bound Ni2+.” left out
# (§3) Cy3 fluorophores were excited by the evanescent wave generated by TIR of a single-frequency light source (Ventus 532 nm, Laser Quanta). […] The inventors acquired fluorescence data using MetaMorph software (Universal Imaging Corporation). […] FRET traces were calculated as: FRET=ICy5/(ICy3+ICy5), where ICy3 and ICy5 are the instantaneous Cy3 and Cy5 fluorescence intensities, respectively. […]
# LeuT [2] = assay: Scintillation proximity assay (SPA) binding of 3H-alanine to purified LeuT variants; parameters: species or system Aquifex aeolicus; conditions: 50 mM Na+
# Experimental: Scintillation proximity-based binding studies. Binding of ^3H-leucine or ^3H-alanine (146 Ci/mmol and 49.4 Ci/mmol, respectively; Moravek) to purified LeuT-variants was measured with the scintillation proximity assay (SPA) as described (Shi, L. et al., Mol. Cell 30, 667-677 (2008)) with 25 ng of purified protein per assay in buffer composed of 150 mM Tris/Mes, pH 7.5/50 mM NaCl/1 mM TCEP/0.1% n-dodecyl-β-D-maltopyranoside or 50 mM Tris/Mes, pH 7.5/150 mM LiCl/1 mM TCEP/0.1% n-dodecyl-β-D-maltopyranoside. To determine the molar ratio of Leu (or Ala)-to LeuT binding samples were incubated with increasing concentrations of radioligand and measured in the SPA cpm mode of the MircoBeta™ counter (Perkin Elmer). The efficiency of detection was calculated with standard curves of known concentrations of ^3H-Leu or ^3H-Ala. The standard curves were used to transform cpm into the amount of bound substrate (Shi, L. et al., Mol. Cell 30, 667-677 (2008)). The amount of LeuT in the SPA assays was determined (Schaffner, W. et al., Anal. Biochem. 56, 502-514 (1973)). SPA-based binding studies using 2 μM [^22Na]Cl (1017 mCi/mg; Perkin Elmer) were performed in 200 Tris/Mes, pH 7.5/1 mM TCEP/0.1% n-dodecyl-β-D-maltopyranoside in the presence of 0-50 mM NaCl (equimolar replacement of Tris/Mes to obtain a total molarity of 200 mM) (Shi, L. et al., Mol. Cell 30, 667-677 (2008)). […]
# LeuT [3] = assay: 3H-Ala transport in LeuT proteoliposomes; assay type: biochemical, Aquifex aeolicus; conditions: in the presence of Li+ (150 mM)
# Experimental: Proteoliposomes were prepared as described (Shi, L. et al., Mol. Cell 30, 667-677 (2008)). The accumulation of ^3H-[…].4 Ci mmol^-1; Moravek) was measured at 23° C. in assay buffer comprised of 150/50 mM Tris/Mes (pH 8.5) and 50 mM NaCl/150 mM LiCl. The reaction was quenched by the addition of ice-cold assay buffer without radiotracer and the proteoliposomes were collected on GF75 glass fiber filters (Advantec) before the determination of the accumulated cpm by liquid scintillation counting.
# [4] = target: Y335A dopamine transporter (Homo sapiens, UniProt Q01959, Y335A); conditions: Y335A dopamine transporter mutant; cited from earlier work
# LeuT (K239C/H480C) = assay: smFRET imaging of extracellularly labeled LeuT K239C/H480C; assay type: biochemical, Aquifex aeolicus; conditions: 0.5 mM CMI; increased from ~0.49 without CMI
# Experimental: as §1
# as §2, with “Cy3/Cy5-labeled His10-LeuT molecules (2 nM) were surface-immobilized to surface-bound Ni2+.” left out
# as §3
# [5] = 10 mM Na+ and 250 μM Ala, 0.1 mM CMI or 35 mM OG
# Sequence of Y335A dopamine transporter (Q01959 whole entry Y335A): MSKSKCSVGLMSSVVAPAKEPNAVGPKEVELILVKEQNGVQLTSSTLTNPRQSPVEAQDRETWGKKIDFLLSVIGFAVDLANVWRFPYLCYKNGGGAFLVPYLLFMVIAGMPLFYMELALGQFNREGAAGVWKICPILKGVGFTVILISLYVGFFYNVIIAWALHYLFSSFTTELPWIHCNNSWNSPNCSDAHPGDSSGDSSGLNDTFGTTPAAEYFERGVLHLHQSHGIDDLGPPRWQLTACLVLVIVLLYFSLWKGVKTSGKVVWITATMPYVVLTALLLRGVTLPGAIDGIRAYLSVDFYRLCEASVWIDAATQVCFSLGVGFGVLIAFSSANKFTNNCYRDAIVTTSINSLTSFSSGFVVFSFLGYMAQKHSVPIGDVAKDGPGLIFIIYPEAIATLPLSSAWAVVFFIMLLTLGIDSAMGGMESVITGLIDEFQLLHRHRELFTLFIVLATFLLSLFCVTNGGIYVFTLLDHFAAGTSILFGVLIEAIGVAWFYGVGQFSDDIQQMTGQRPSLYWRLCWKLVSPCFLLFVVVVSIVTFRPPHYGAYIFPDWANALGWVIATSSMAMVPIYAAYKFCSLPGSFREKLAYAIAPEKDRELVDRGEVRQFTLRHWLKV
structure (smiles),measurement,setting,value
[Na+] [Na^+],preferential stabilization of the inward-closed state,LeuT (H7C/R86C); Na+ titration,~7 fold
same,EC50,"LeuT (H7C/R86C); hidden Markov modeling of Na+ titration, read-out: EC50 for altering distribution of low- and high-FRET LeuT conformations",10.9 mM
same,dwell time of high FRET state,"LeuT (H7C/R86C); high Na+ concentrations, limited by photobleaching",> 76 s
same,FRET value of stabilized higher-FRET state,"LeuT (H7C/R86C); saturating Na+ 200 mM, H7C/R86C",~0.77
same,EC50,LeuT [1],~10 mM
same,FRET value of stabilized higher-FRET state,LeuT (H7C/T515C),~0.73
"C[C@H](N)C(=O)O [Ala, L-alanine]",effect on FRET distribution,"LeuT (H7C/R86C); 2 mM Na+, increasing Ala concentrations",did not shift the FRET distribution toward the closed state
same,enhancement of transition rates between inward-open and inward-closed states,"LeuT (H7C/R86C); 2 mM Na+, as much as",~4 fold
same,effect on lifetimes of inward-open or inward-closed states,"LeuT (H7C/R86C); Ala alone, nominal absence of Na+",not significantly affected
same,effect on intracellular gating dynamics,"LeuT (H7C/R86C); F253A (S1 site) mutant, 10 mM Na+, 250 μM Ala",failed to increase intracellular gating dynamics
same,effect on intracellular gating dynamics,"LeuT (H7C/R86C); L400S (S2 site) mutant, 10 mM Na+, 250 μM Ala",no increase in intracellular gating dynamics was observed
same,effect on intracellular gating dynamics,"LeuT (H7C/R86C); Li+ in place of Na+ (40 mM Li+), 250 μM Ala",failed to accelerate intracellular gating dynamics
same,"reduction in the rate of gate opening, kclosed-open","LeuT (H7C/R86C); Li+ in place of Na+, 250 μM Ala",~2 fold
same,lowering of activation barrier between open and closed states (ΔΔG),"LeuT (H7C/R86C); as much as, conditions of the experiment",~0.72 kcal/mol
same,Ala binding to the S2 site,LeuT [2]; F253A mutant,bound stoichiometrically
same,Ala binding to the S1 site,LeuT [2]; L400S mutant,stoichiometric
same,substrate transport,LeuT [3],not observed
"CC(C)C[C@H](N)C(=O)O [Leu, L-leucine]",further changes in FRET upon addition of leucine,LeuT (H7C/R86C); 20 μM leucine at 200 mM Na+,did not observe further changes in FRET
same,stabilization of closed intracellular gate state,"LeuT (H7C/R86C); 2 mM Na+, Leu titration",~3.5 fold
same,effect of leucine binding on low-/high-FRET populations,"LeuT (H7C/R86C); 5 mM Na+, 0.2-20 μM leucine",redistributed the two populations in a concentration-dependent fashion in favour of higher-FRET configurations
same,FRET value of high-FRET configurations reached by leucine-dependent isomerization,"LeuT (H7C/R86C); LeuT-R5A, 7/86 pair, 200 mM NaCl and 20 μM leucine",~0.77
same,raising of energy barrier to motion,"LeuT (H7C/R86C); as much as, similar to Na+ (50 mM) alone",~0.96 kcal/mol
[Zn] [zinc],effect on transport,[4],markedly enhances transport
"CN(C)CCCN1c2ccccc2CCc2ccc(Cl)cc21 [CMI, clomipramine]",FRET value of stabilized high-FRET state,"LeuT (H7C/R86C); 0.5 mM CMI, 200 mM KCl, wild-type H7C/R86C",~0.69
same,effect on intracellular gating dynamics,LeuT (H7C/R86C); [5],essentially eliminated the occurrence of intracellular gate opening; also recorded: inhibits these conformational dynamics
same,FRET between K239C/H480C labels with inhibitor bound,LeuT (K239C/H480C),~0.53
"CCCCCCCCO[C@@H]1O[C@H](CO)[C@@H](O)[C@H](O)[C@H]1O [OG, n-octyl-β-D-glucopyranoside]",effect on intracellular gating dynamics,LeuT (H7C/R86C); [5],inhibited intracellular gating dynamics
